Where a SMILES comes first, the peptide text is derived from it. [ ]: non-standard residue; d: D form.
Assays:
[1] = tested on: T cells; experiment: Activation of T cells by mitogenic proliferation (ConA, PHA); format: cell-based, C57BL/6 mice; settings: concentration not given; 0 not defined
Text: c) Activation of T or B cells by Mitogenic Proliferation
A mitogenic lectin (mitogen) is a glycoprotein which binds and cross-links specific cells surface carbohydrate determinants, and will polyclonally stimulate lymphoid cells. Lymphocyte activation by either antigens or mitogens results in intracellular changes and the subsequent development into a lymphoblast. Mitogenic stimulation of lymphocytes in vitro is believed to mimic the series of events which occur in vivo following their stimulation by specific antigens. PHA and ConA; PWM and LPS mitogens can be used as a measurement of T cell and B cell activity, respectively. Briefly, the spleen mononuclear leukocytes from C57BL/6 mice are incubated in the presence or absence of mitogens with or without candidate drugs. After 72 hours or 5 days, ^3 H-thymidine incorporation is recorded as an indication of cell proliferation.
Lymphocytes were isolated from mice spleen or human blood in accordance to methods well known in the art. 100 μl of cell suspension of 2×10^6 cells/ml was added per well (2x10^5 cells/well) and incubated in the presence of lectin at the following concentrations:
PHA=0.01% to 0.001% final concentration
Cells were incubated for 3 days with PHA or ConA, or 5 days with PWM or LPS. 1 μCi of tritiated thymidine was added to each well for the last 6 hours (or 0.5 μCi for 18 hrs). The cells were harvested in a cell Harvester (Tortech®) and counted in a Beta counter.

[2] = tested on: spleen cell subsets (cell surface antigens); experiment: In vivo/ex vivo immunophenotyping in the spleen, mice treated 4 consecutive days; design: species or system C57BL/6 mice
Method: C57BL.backslash.6 mice are treated with 0, 50, 100, 200, and 300 mg/kg of drug (in saline) for 4 consecutive days. Blood is taken by cardiac puncture on day 5, and the lymphocytes are isolated from spleen in the following manner:
The spleen is aseptically removed and mashed by pressing against a steel strainer with a rubber plunger. The cell suspension is separated from the clumps by letting them settle at the bottom of the tube. The cell suspension is then separated on a Lymphocyte M layer and the interface is recovered and resuspended in media.
1. Immunophenotyping (blood and spleen)
Cell immunophenotyping is performed on blood and spleen. The following cell surface antigens are analyzed:
CD4 (T helper/inducer, binds class II-restricted T cells);
CD8 (cytotoxic T cells, CTL adhesion);
MAC-1 (monocyte/macrophage);
NK (natural killer cells);
CD45 (all leukocytes, protein tyrosine phosphatase).

NCCCC[C@@H](N)C(=O)N[C@@H](CC(N)=O)C(=O)N1CCC[C@H]1C(=O)N[C@@H](Cc1ccc(O)cc1)C(=O)O [PEPTIDE #5, H-(D-Lys)-Asn-Pro-Tyr-OH] (H-[dK]NPY-OH)
Activation of T Cells, ConA [1]: 0 | Activation of T Cells, PHA [1]: 0 | CD4+ CD8+ cell subset, relative percentage, MEAN ([2]; 50 mg/kg, first assay): 0.58 | CD4+ CD8- cell subset, relative percentage, MEAN ([2]; 50 mg/kg, first assay): 33.05 | CD4+ CD11b+ cell subset, relative percentage, MEAN ([2]; 50 mg/kg, first assay): 0.83 | CD4+ CD11b- cell subset, relative percentage, MEAN ([2]; 50 mg/kg, first assay): 23.88 | CD4- CD8+ cell subset, relative percentage, MEAN ([2]; 50 mg/kg, first assay): 5.73 | CD4- CD8- cell subset, relative percentage, MEAN ([2]; 50 mg/kg, first assay): 60.65 | CD4- CD11b+ cell subset, relative percentage, MEAN ([2]; 50 mg/kg, first assay): 3.63 | CD4- CD11b- cell subset, relative percentage, MEAN ([2]; 50 mg/kg, first assay): 71.73 | CD45+ CD4+ cell subset, relative percentage, MEAN ([2]; 50 mg/kg, first assay): 21.43 | CD45+ CD4- cell subset, relative percentage, MEAN ([2]; 50 mg/kg, first assay): 55.25 | CD45+ CD8+ cell subset, relative percentage, MEAN ([2]; 50 mg/kg, first assay): 5.38 | CD45+ CD8- cell subset, relative percentage, MEAN ([2]; 50 mg/kg, first assay): 66.00 | CD45- CD4+ cell subset, relative percentage, MEAN ([2]; 50 mg/kg, first assay): 13.28 | CD45- CD4- cell subset, relative percentage, MEAN ([2]; 50 mg/kg, first assay): 10.03 | CD45- CD8+ cell subset, relative percentage, MEAN ([2]; 50 mg/kg, first assay): 0.63 | CD45- CD8- cell subset, relative percentage, MEAN ([2]; 50 mg/kg, first assay): 28.05 | Ly5(B) cell subset, relative percentage, MEAN ([2]; 50 mg/kg, first assay): 57.85 | NK+ CD3+ cell subset, relative percentage, MEAN ([2]; 50 mg/kg, first assay): 1.50 | NK+ CD3- cell subset, relative percentage, MEAN ([2]; 50 mg/kg, first assay): 3.78 | NK- CD3+ cell subset, relative percentage, MEAN ([2]; 50 mg/kg, first assay): 38.13 | NK- CD3- cell subset, relative percentage, MEAN ([2]; 50 mg/kg, first assay): 56.68 | TCR(T) cell subset, relative percentage, MEAN ([2]; 50 mg/kg, first assay): 40.23 | CD4+ CD8+ cell subset, relative percentage, MEAN ([2]; 50 mg/kg, second assay): 0.63 | CD4+ CD8- cell subset, relative percentage, MEAN ([2]; 50 mg/kg, second assay): 36.53 | CD4+ CD11b+ cell subset, relative percentage, MEAN ([2]; 50 mg/kg, second assay): 0.38 | CD4+ CD11b- cell subset, relative percentage, MEAN ([2]; 50 mg/kg, second assay): 14.85 | CD4- CD8+ cell subset, relative percentage, MEAN ([2]; 50 mg/kg, second assay): 5.85 | CD4- CD8- cell subset, relative percentage, MEAN ([2]; 50 mg/kg, second assay): 57.03 | CD4- CD11b+ cell subset, relative percentage, MEAN ([2]; 50 mg/kg, second assay): 3.60 | CD4- CD11b- cell subset, relative percentage, MEAN ([2]; 50 mg/kg, second assay): 81.15 | CD45+ CD4+ cell subset, relative percentage, MEAN ([2]; 50 mg/kg, second assay): 29.23 | CD45+ CD4- cell subset, relative percentage, MEAN ([2]; 50 mg/kg, second assay): 49.85 | CD45+ CD8+ cell subset, relative percentage, MEAN ([2]; 50 mg/kg, second assay): 6.03 | CD45+ CD8- cell subset, relative percentage, MEAN ([2]; 50 mg/kg, second assay): 75.15 | CD45- CD4+ cell subset, relative percentage, MEAN ([2]; 50 mg/kg, second assay): 8.83 | CD45- CD4- cell subset, relative percentage, MEAN ([2]; 50 mg/kg, second assay): 12.05 | CD45- CD8+ cell subset, relative percentage, MEAN ([2]; 50 mg/kg, second assay): 0.18 | CD45- CD8- cell subset, relative percentage, MEAN ([2]; 50 mg/kg, second assay): 18.65 | Ly5(B) cell subset, relative percentage, MEAN ([2]; 50 mg/kg, second assay): 41.20 | NK+ CD3+ cell subset, relative percentage, MEAN ([2]; 50 mg/kg, second assay): 2.18 | NK+ CD3- cell subset, relative percentage, MEAN ([2]; 50 mg/kg, second assay): 3.83 | NK- CD3+ cell subset, relative percentage, MEAN ([2]; 50 mg/kg, second assay): 39.60 | NK- CD3- cell subset, relative percentage, MEAN ([2]; 50 mg/kg, second assay): 54.38 | TCR(T) cell subset, relative percentage, MEAN ([2]; 50 mg/kg, second assay): 51.58 | CD4+ CD8+ cell subset, relative percentage, MEAN ([2]; 100 mg/kg, first assay): 0.70 | CD4+ CD8- cell subset, relative percentage, MEAN ([2]; 100 mg/kg, first assay): 36.85 | CD4+ CD11b+ cell subset, relative percentage, MEAN ([2]; 100 mg/kg, first assay): 0.95 | CD4+ CD11b- cell subset, relative percentage, MEAN ([2]; 100 mg/kg, first assay): 23.73 | CD4- CD8+ cell subset, relative percentage, MEAN ([2]; 100 mg/kg, first assay): 7.03 | CD4- CD8- cell subset, relative percentage, MEAN ([2]; 100 mg/kg, first assay): 55.50 | CD4- CD11b+ cell subset, relative percentage, MEAN ([2]; 100 mg/kg, first assay): 4.10 | CD4- CD11b- cell subset, relative percentage, MEAN ([2]; 100 mg/kg, first assay): 71.23 | CD45+ CD4+ cell subset, relative percentage, MEAN ([2]; 100 mg/kg, first assay): 23.25 | CD45+ CD4- cell subset, relative percentage, MEAN ([2]; 100 mg/kg, first assay): 52.10 | CD45+ CD8+ cell subset, relative percentage, MEAN ([2]; 100 mg/kg, first assay): 6.43 | CD45+ CD8- cell subset, relative percentage, MEAN ([2]; 100 mg/kg, first assay): 63.43 | CD45- CD4+ cell subset, relative percentage, MEAN ([2]; 100 mg/kg, first assay): 15.35 | CD45- CD4- cell subset, relative percentage, MEAN ([2]; 100 mg/kg, first assay): 9.30 | CD45- CD8+ cell subset, relative percentage, MEAN ([2]; 100 mg/kg, first assay): 0.83 | CD45- CD8- cell subset, relative percentage, MEAN ([2]; 100 mg/kg, first assay): 29.30 | Ly5(B) cell subset, relative percentage, MEAN ([2]; 100 mg/kg, first assay): 56.75 | NK+ CD3+ cell subset, relative percentage, MEAN ([2]; 100 mg/kg, first assay): 1.83 | NK+ CD3- cell subset, relative percentage, MEAN ([2]; 100 mg/kg, first assay): 3.88 | NK- CD3+ cell subset, relative percentage, MEAN ([2]; 100 mg/kg, first assay): 38.38 | NK- CD3- cell subset, relative percentage, MEAN ([2]; 100 mg/kg, first assay): 55.95

— patent publication US5980913A, “Peptides having immunomodulatory activity” (Biochem Pharma, Inc., priority 1994, dated 1999)
